{"source": "ChEMBL document CHEMBL1240341", "about": "(Leukemia, 2009)", "key": {"[1]": {"target": "Tyrosine-protein kinase Fes/Fps (Homo sapiens) (UniProt P07332)", "experiment": "Inhibition of FES at 10 uM"}, "[2]": {"target": "T1, High affinity nerve growth factor receptor (Homo sapiens, UniProt P04629)", "experiment": "Inhibition of TRKA at 10 uM"}, "[3]": {"target": "Interleukin-1 receptor-associated kinase 4 (Homo sapiens) (UniProt Q9NWZ3)", "experiment": "Inhibition of IRAK4 at 10 uM"}, "Angiopoietin-1 receptor [4]": {"target": "T2, Angiopoietin-1 receptor (Homo sapiens, UniProt Q02763)", "T2 sequence (Q02763 whole entry)": "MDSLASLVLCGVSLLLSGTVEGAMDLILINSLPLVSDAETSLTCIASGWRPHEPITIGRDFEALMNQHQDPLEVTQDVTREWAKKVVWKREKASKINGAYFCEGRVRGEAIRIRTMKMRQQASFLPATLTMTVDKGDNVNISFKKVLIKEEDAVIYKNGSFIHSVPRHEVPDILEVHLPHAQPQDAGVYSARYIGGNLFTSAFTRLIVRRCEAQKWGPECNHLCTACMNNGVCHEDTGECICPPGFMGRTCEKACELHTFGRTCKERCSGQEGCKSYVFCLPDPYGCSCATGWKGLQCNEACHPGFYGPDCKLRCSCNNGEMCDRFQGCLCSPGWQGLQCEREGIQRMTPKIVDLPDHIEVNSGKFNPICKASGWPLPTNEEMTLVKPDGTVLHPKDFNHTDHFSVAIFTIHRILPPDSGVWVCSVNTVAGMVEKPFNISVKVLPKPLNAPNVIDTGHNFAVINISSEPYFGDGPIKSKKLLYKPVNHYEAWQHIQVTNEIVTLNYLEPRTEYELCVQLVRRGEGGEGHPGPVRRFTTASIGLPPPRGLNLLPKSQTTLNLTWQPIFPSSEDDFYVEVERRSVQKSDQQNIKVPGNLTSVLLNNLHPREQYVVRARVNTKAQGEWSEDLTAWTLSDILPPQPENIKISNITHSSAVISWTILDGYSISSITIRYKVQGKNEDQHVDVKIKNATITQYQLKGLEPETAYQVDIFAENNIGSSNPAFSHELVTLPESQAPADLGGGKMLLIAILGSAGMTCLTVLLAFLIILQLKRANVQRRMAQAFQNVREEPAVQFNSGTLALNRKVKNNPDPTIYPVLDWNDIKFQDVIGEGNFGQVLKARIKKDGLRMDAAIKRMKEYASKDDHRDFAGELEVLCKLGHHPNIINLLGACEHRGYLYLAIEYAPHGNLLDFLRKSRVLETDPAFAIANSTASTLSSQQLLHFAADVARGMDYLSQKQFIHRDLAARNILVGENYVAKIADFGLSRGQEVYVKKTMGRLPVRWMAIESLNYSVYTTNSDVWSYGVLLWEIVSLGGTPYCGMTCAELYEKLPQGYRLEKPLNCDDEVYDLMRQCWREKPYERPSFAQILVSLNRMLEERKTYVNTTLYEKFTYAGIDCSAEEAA", "experiment": "Inhibition of TIE2 at 10 uM"}, "[5]": {"target": "Tyrosine-protein kinase Blk (Mus musculus, UniProt P16277)", "sequence (P16277 whole entry)": "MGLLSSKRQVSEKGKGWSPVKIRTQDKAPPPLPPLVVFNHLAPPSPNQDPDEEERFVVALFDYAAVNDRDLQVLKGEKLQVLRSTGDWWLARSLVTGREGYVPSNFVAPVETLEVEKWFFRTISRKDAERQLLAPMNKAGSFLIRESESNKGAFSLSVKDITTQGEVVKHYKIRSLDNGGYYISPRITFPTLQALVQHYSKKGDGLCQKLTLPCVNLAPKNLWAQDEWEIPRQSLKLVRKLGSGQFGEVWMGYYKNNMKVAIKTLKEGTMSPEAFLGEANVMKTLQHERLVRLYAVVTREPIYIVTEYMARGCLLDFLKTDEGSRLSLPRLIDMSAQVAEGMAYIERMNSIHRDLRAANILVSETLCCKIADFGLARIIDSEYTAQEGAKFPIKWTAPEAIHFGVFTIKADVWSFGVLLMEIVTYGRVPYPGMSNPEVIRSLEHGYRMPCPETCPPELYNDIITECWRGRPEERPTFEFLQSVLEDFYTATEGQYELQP", "experiment": "Inhibition of mouse BLK"}, "[6]": {"target": "Tyrosine-protein kinase receptor UFO (Homo sapiens) (UniProt P30530)", "sequence (P30530 whole entry)": "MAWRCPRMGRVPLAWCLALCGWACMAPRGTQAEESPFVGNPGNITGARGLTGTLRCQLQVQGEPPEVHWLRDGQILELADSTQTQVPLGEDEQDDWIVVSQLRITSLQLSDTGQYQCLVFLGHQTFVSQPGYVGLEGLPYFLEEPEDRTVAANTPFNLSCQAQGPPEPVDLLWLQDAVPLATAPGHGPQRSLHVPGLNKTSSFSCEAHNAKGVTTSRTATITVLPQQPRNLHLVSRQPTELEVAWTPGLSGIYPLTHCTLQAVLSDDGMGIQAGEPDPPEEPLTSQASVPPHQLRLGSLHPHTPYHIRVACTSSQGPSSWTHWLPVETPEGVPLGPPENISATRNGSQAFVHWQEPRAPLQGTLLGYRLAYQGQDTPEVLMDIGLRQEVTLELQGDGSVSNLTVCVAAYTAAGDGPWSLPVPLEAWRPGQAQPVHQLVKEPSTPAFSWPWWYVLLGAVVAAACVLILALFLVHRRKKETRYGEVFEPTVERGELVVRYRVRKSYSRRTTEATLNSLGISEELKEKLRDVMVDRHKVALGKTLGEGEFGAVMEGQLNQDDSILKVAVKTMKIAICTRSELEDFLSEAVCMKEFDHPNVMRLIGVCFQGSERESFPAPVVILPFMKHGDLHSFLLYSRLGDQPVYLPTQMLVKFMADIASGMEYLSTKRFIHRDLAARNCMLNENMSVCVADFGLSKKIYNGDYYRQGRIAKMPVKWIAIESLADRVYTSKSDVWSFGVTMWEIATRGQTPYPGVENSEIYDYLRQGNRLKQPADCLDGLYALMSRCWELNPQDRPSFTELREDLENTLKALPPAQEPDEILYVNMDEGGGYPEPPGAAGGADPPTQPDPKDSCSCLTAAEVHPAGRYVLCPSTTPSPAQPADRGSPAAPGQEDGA", "experiment": "Inhibition of AXL at 10 uM"}, "[7]": {"target": "T3, BDNF/NT-3 growth factors receptor (Homo sapiens, UniProt Q16620)", "experiment": "Inhibition of TRKB at 10 uM"}, "[8]": {"target": "Serine/threonine-protein kinase 24 (Homo sapiens, UniProt Q9Y6E0)", "experiment": "Inhibition of STK24"}, "[9]": {"target": "Interleukin-1 receptor-associated kinase 4 (Homo sapiens, UniProt Q9NWZ3)", "experiment": "Inhibition of IRAK4"}, "[10]": {"target": "Protein-tyrosine kinase 2-beta (Homo sapiens, UniProt Q14289)", "experiment": "Inhibition of PTK2B"}, "[11]": {"target": "Tyrosine-protein kinase TXK (Homo sapiens, UniProt P42681)", "sequence (P42681 whole entry)": "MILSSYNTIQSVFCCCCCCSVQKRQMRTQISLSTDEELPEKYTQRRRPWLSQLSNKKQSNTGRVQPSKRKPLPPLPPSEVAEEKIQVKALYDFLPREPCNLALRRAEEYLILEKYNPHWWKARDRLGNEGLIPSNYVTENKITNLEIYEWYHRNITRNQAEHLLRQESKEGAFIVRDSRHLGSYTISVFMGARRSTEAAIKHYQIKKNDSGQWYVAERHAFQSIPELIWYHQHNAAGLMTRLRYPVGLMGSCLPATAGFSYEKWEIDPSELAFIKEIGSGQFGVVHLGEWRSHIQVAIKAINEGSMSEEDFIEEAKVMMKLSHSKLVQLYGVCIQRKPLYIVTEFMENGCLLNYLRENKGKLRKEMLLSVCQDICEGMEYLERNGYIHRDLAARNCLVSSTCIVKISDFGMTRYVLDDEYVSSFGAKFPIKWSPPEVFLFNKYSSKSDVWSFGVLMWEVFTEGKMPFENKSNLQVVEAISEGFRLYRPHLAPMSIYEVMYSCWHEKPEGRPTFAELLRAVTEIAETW", "experiment": "Inhibition of TXK"}, "[12]": {"target": "Tyrosine-protein kinase HCK (Homo sapiens, UniProt P08631)", "experiment": "Inhibition of HCK"}, "[13]": {"target": "Tyrosine-protein kinase BTK (Homo sapiens, UniProt Q06187)", "sequence (Q06187 whole entry)": "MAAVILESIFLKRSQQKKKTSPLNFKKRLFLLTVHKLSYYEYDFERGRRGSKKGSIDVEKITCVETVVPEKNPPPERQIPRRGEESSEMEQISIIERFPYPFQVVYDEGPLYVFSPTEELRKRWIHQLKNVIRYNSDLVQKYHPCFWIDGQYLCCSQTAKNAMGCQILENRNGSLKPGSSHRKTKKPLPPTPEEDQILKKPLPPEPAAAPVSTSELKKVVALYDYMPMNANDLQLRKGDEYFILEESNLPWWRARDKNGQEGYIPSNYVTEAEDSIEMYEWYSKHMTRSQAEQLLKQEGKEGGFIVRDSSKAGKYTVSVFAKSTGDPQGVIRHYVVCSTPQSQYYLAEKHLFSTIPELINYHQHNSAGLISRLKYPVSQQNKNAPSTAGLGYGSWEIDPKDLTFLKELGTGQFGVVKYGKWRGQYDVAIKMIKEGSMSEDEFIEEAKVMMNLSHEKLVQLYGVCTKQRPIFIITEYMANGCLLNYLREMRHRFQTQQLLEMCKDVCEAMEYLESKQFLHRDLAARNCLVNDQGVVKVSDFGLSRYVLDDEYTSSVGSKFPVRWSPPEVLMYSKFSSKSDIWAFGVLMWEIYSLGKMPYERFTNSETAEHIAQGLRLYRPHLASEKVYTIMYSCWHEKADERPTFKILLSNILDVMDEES", "experiment": "Inhibition of BTK"}, "[14]": {"target": "Tyrosine-protein kinase CSK (Homo sapiens, UniProt P41240)", "experiment": "Inhibition of CSK"}, "[15]": {"target": "Mitogen-activated protein kinase kinase kinase kinase 5 (Homo sapiens, UniProt Q9Y4K4)", "experiment": "Inhibition of MAP4K5"}, "[16]": {"target": "Tyrosine-protein kinase FRK (Homo sapiens, UniProt P42685)", "sequence (P42685 whole entry)": "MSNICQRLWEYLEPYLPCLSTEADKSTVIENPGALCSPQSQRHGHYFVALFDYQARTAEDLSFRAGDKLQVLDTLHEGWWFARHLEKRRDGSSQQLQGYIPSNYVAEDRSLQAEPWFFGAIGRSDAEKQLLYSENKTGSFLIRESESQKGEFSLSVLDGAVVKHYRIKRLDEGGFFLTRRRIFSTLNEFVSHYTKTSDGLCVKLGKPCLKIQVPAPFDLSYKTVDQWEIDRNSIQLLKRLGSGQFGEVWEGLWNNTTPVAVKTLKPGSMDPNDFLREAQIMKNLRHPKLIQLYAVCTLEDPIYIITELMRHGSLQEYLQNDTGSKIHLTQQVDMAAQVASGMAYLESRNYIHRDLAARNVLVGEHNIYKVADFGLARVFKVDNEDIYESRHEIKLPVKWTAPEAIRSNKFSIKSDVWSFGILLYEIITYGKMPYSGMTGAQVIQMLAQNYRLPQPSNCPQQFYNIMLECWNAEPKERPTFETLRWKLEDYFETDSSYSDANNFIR", "experiment": "Inhibition of FRK"}, "[17]": {"target": "Tyrosine-protein kinase ABL2 (Homo sapiens, UniProt P42684)", "experiment": "Inhibition of ABL2"}, "Activated CDC42 kinase 1": {"target": "Activated CDC42 kinase 1 (Homo sapiens, UniProt Q07912)", "experiment": "Inhibition of TNK2"}, "[18]": {"target": "Serine/threonine-protein kinase TBK1 (Homo sapiens, UniProt Q9UHD2)", "experiment": "Inhibition of TBK1"}, "[19]": {"target": "Mitogen-activated protein kinase kinase kinase kinase 2 (Homo sapiens, UniProt Q12851)", "sequence (Q12851 whole entry)": "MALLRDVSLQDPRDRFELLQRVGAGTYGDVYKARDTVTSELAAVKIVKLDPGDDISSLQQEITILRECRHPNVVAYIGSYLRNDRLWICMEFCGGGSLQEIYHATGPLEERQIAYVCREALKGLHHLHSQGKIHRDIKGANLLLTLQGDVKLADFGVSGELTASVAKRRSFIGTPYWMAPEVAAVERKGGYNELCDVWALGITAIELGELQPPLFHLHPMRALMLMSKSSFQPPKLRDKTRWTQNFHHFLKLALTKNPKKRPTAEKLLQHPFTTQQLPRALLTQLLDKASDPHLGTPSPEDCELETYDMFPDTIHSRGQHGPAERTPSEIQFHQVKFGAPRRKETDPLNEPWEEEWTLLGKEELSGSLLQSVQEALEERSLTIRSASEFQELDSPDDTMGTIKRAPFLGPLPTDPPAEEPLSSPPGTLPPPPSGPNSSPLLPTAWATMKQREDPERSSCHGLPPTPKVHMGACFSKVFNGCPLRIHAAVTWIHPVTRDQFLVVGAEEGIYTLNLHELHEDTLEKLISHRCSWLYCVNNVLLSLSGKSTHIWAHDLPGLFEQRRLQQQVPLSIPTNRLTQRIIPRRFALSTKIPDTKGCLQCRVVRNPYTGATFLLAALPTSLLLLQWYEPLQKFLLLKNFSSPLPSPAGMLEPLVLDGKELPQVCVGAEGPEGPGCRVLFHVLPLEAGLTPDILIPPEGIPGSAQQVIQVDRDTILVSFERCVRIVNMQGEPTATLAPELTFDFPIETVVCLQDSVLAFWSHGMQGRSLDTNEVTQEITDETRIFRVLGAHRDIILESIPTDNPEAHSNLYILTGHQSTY", "experiment": "Inhibition of MAP4K2"}, "[20]": {"target": "Calcium/calmodulin-dependent protein kinase type II subunit gamma (Homo sapiens, UniProt Q13555)", "experiment": "Inhibition of CAMK2G"}, "[21]": {"target": "Tyrosine-protein kinase Fgr (Homo sapiens, UniProt P09769)", "experiment": "Inhibition of FGR"}, "Misshapen-like kinase 1": {"target": "Misshapen-like kinase 1 (Homo sapiens, UniProt Q8N4C8)", "experiment": "Inhibition of MINK1"}, "[22]": {"target": "T1, High affinity nerve growth factor receptor", "experiment": "Inhibition of TRKA"}, "Angiopoietin-1 receptor [23]": {"target": "T2, Angiopoietin-1 receptor", "experiment": "Inhibition of TIE2"}, "[24]": {"target": "Tyrosine-protein kinase Tec (Homo sapiens, UniProt P42680)", "experiment": "Inhibition of TEC"}, "[25]": {"target": "T3, BDNF/NT-3 growth factors receptor", "experiment": "Inhibition of TRKB"}}}
{"smiles": "Cc1nc(Nc2ncc(C(=O)Nc3c(C)cccc3Cl)s2)cc(N2CCN(CCO)CC2)n1", "note": "[DASATINIB]", "values": [{"measurement": "residual activity", "setting": "[1]", "value": 83, "unit": "%"}, {"measurement": "residual activity", "setting": "[2]", "value": 35, "unit": "%"}, {"measurement": "residual activity", "setting": "[3]", "value": 84, "unit": "%"}, {"measurement": "residual activity", "setting": "Angiopoietin-1 receptor [4]", "value": 48, "unit": "%"}, {"measurement": "IC50", "setting": "[5]", "value": 8, "unit": "nM"}, {"measurement": "residual activity", "setting": "[6]", "value": 86, "unit": "%"}, {"measurement": "residual activity", "setting": "[7]", "value": 52, "unit": "%"}]}
{"smiles": "COc1cc(Nc2c(C#N)cnc3cc(OCCCN4CCN(C)CC4)c(OC)cc23)c(Cl)cc1Cl", "note": "[BOSUTINIB]", "values": [{"measurement": "IC50", "setting": "[8]", "value": 3.9, "unit": "nM"}, {"measurement": "IC50", "setting": "[9]", "value": 574, "unit": "nM"}, {"measurement": "IC50", "setting": "[10]", "value": 134, "unit": "nM"}, {"measurement": "IC50", "setting": "[11]", "value": 40, "unit": "nM"}, {"measurement": "IC50", "setting": "[12]", "value": 3.2, "unit": "nM"}, {"measurement": "IC50", "setting": "[13]", "value": 2.5, "unit": "nM"}, {"measurement": "IC50", "setting": "[14]", "value": 63, "unit": "nM"}, {"measurement": "IC50", "setting": "[15]", "value": 0.3, "unit": "nM"}, {"measurement": "IC50", "setting": "[16]", "value": 2.2, "unit": "nM"}, {"measurement": "IC50", "setting": "[17]", "value": 0.5, "unit": "nM"}, {"measurement": "IC50", "setting": "Activated CDC42 kinase 1", "value": 2.7, "unit": "nM"}, {"measurement": "IC50", "setting": "[18]", "value": 471, "unit": "nM"}, {"measurement": "IC50", "setting": "[5]", "value": 7.3, "unit": "nM"}, {"measurement": "IC50", "setting": "[19]", "value": 9.9, "unit": "nM"}, {"measurement": "IC50", "setting": "[20]", "value": 184, "unit": "nM"}, {"measurement": "IC50", "setting": "[21]", "value": 1.1, "unit": "nM"}, {"measurement": "IC50", "setting": "Misshapen-like kinase 1", "value": 22, "unit": "nM"}, {"measurement": "IC50", "setting": "[22]", "value": 22, "unit": "nM"}, {"measurement": "IC50", "setting": "Angiopoietin-1 receptor [23]", "value": 1190, "unit": "nM"}, {"measurement": "IC50", "setting": "[24]", "value": 282, "unit": "nM"}, {"measurement": "IC50", "setting": "[25]", "value": 27, "unit": "nM"}]}
